By IC50 is commonly meant the concentration at which inhibition is half-maximal. A lower IC50 goes with higher potency.

GTPase HRas [G12V], sequence (P01112 whole entry G12V, looked up): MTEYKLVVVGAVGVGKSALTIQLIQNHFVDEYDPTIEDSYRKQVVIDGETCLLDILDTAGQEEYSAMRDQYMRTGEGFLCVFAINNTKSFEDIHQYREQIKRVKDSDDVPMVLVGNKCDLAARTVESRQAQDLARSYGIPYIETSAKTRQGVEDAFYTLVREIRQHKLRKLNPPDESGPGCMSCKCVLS

This test has as its target GTPase HRas [G12V] (Homo sapiens, UniProt P01112, G12V). The test is described as follows: In Vitro Ras-Raf Binding Inhibitory Activity Assay. On the procedure:
The in vitro Ras-Raf binding inhibitory activity of the compound of the present invention was evaluated by an ELISA method described below. GST-c-Raf-1 RBD diluted with a Ras-Raf binding buffer (50 mM Tris-HCl pH7.4, 150 mM NaCl, 5 mM MgCl2, 1 mM EDTA, and 1% Triton-X100) was added to each well of a glutathione-coated 96-well plate (Thermo Fisher Scientific.), and was incubated at 30° C. for 1 hour, to immobilize Raf on the well. The unbound free Raf was eliminated by washing the well with the Ras-Raf binding buffer three times. Subsequently, GTPTS-bound HRasG12V diluted with the Ras-Raf binding buffer and each compound solution (final DMSO concentration: 10%) were applied to each well, and the resulting mixture was then incubated at 30° C. for 1 hour, so that Ras and Raf were allowed to bind to each other. Thereafter, the plate was washed with the Ras-Raf binding buffer twice, and was then subjected to a blocking treatment at room temperature for 20 minutes, using TBS-Tween {10 mM Tris-HCl pH 7.4, 150 mM NaCl, and 0.05% (w/v) Tween-20}-5% (w/v) bovine serum albumin (BSA). After that, an anti-HRas antibody (C-20, Santa Cruz) or an anti-HRas antibody (259, Santa Cruz), which had been 1000 times diluted with TBS-Tween-5% BSA, was added to the reaction mixture, and incubated at room temperature for 1 hours. After the treatment with the primary antibody, the plate was washed with TBS-Tween-5% BSA three times, and a horseradish peroxidase-labeled secondary antibody against rabbit immunoglobulin G (GE Healthcare) of 1000 times diluted with TBS-Tween-5% BSA, was added to the plate, followed by incubation at room temperature for 1 hour. After the treatment with the secondary antibody, the plate was washed with TBS-Tween-5% BSA three times, and a substrate solution (TMB) was then added to the plate, followed by incubation at room temperature for 15 minutes for coloration. Finally, 2 M H2SO4 was added to stop color development (coloration reaction kit: Nacalai Tesque).
For the compound `CC(=O)N1CCCC(c2cc(/C=C3/C(=O)c4ccccc4N3C(C)=O)nc3ccc(C(=O)N4CCOCC4)cc23)C1` (centres undefined) [US20250091994, Example 179], the IC50 stood at 1 µM. This lies in the single-digit micromolar range.
Next, `COc1cc(/C=C2/C(=O)c3ccccc3N2C(C)=O)ccc1OC[S+](C)[O-]` (centres undefined) [US20250091994, Example 25]: 5.9 µM.
Next, `COc1cc(C=C2C(=O)c3c(F)cccc3N2C(C)=O)ccc1OCC(=O)N1CCOCC1` [US20250091994, Example 104]: 9 µM; `CC(=O)N1C(=Cc2cc(-c3ccccc3)c3cc(C(=O)N4CCOCC4)ccc3n2)C(=O)c2ccccc21` [US20250091994, Example 83]: 0.84 µM.
As to `CC(=O)N1/C(=C\c2ccc3cc(OCC(=O)N4CCOCC4)ccc3n2)C(=O)c2ccccc21` [US20250091994, Example 65], the IC50 was 2.4 µM.
To `CC(=O)N1/C(=C/c2nc3cc(C(=O)N4CCOCC4)ccc3s2)C(=O)c2ccccc21` [US20250091994, Example 48] belongs 3.5 µM; to `CC(=O)N1/C(=C\c2ccc3cc(C#N)ccc3n2)C(=O)c2ccccc21` [US20250091994, Example 34], 2.8 µM.
To `CC(=O)N1/C(=C/c2cc(-c3ccnc4ccccc34)c3cc(C(=O)N4CCOCC4)ccc3n2)C(=O)c2ccccc21` [US20250091994, Example 117] belongs 1.1 µM; to `CC(=O)N1/C(=C/c2nc3cc(C(=O)N4CC(C)OC(C)C4)ccc3s2)C(=O)c2ccccc21` (centres undefined) [US20250091994, Example 99], 0.78 µM.

The values above are taken from BindingDB's records for patent US20250091994 (Kobe University, 2025).
